# Data: patent publication US20150250765A1, “NITAZOXANIDE AND MEBENDAZOLE SYNERGIC COMPOSITION, PROCESSES FOR THE PREPARATION THEREOF, AND USE OF SAID COMPOSITION FOR THE TREATMENT OF HUMAN PARASITOSIS” (priority 2012, published 2015)
# Assays:
# [1] = system: L4 (larva or adult worm) of different kinds of helminths (eg. trichuris spp); assay: inhibition of larval migration test; assay type: cell-based; conditions: 100 μg/ml (combination: 50 μg/ml NTZX and 50 μg/ml MBDZ), 16 hours at 37° C., then 18 hours migration
# Description: 1) In order to determine the in vitro anthelmintic effectiveness of the pharmaceutical combination of NTZX and MBDZ the “inhibition of larval migration test” was used, which was developed by […] et al. (1992) and modified by Rable et al. (1994) and Paolini et al. 2004). […] The rats of the Sprague-Dawley vivarium strain, parasites naive, were infected with different kinds of […]. Trichuria trichuris infected eggs). Approximately 3 g of feces were placed in culture bottles. The feces were cultured to produce worms or larvae (L4 stage) at a temperature of 37° C. for 72 hours. In order to determine the in vitro anthelmintic effectiveness the larval migration inhibition test was used. […] The tubes were incubated at 37° C. for 16 hours. The total content of these tubes, 0.5 ml, was transferred to the filters located within the acrylic tubes and grown at room temperature for 18 hours to allow the larvae to migrate through the filters within the chamber. Then, the filters were removed from the chambers and the total number of larvae in the filters and in chambers was counted. The larval migration inhibition (LMI) was determined using the following formula: [formula] Wherein A=larvae migrated ratio in the control and B=larvae migrated ratio in the treatments.
# L4 helminth larvae = assay: scale of larval motility; assay type: cell-based, trichuris spp; parameters: key: 0=death; 1=very low motility; 2=low motility; 3=normal motility; conditions: L4 helminth larvae in culture with drug; scale 0 to 3 points
# Protocol: The rats of the Sprague-Dawley vivarium strain, parasites naive, were infected with different kinds of […]. Trichuria trichuris infected eggs). Approximately 3 g of feces were placed in culture bottles. The feces were cultured to produce worms or larvae (L4 stage) at a temperature of 37° C. for 72 hours. In order to determine the in vitro anthelmintic effectiveness the larval migration inhibition test was used. […] The tubes were incubated at 37° C. for 16 hours. The total content of these tubes, 0.5 ml, was transferred to the filters located within the acrylic tubes and grown at room temperature for 18 hours to allow the larvae to migrate through the filters within the chamber. Then, the filters were removed from the chambers and the total number of larvae in the filters and in chambers was counted. 2) Another method for the larval motility assessment was using the “scale of larval motility” in the various tubes with the different drugs and the control group. The scale of motility is a scale from 0 to 3 points, wherein 0=death; 1=very low motility; 2=low motility and 3=normal motility.
# [2] = system: Giardia intestinalis trophozoites; assay: in vitro antiprotozoal effectiveness in intestinal Giardia culture (morphology, adhesion, viability of trophozoites); conditions: for Mobility Ranking / Ranking of trophozoites adhesion: 2 μg/ml (combination 1 + 1 μg/ml)
# Protocol: 1) The in vitro antiprotozoal effectiveness of the pharmaceutical combination of NTZX with […] was determined in an intestinal Giardia culture as compared with the NTZX and MBDZ active ingredients separately. In this study the morphology, the adhesion and the viability of the Giardias trophozoites was assessed in in vitro cultures.
# The antiparasitic agents used were NTZX at a 2 μg/ml concentration; MBDZ at a 2 μg/ml concentration and a pharmaceutical combination of 1 μg/ml NTZX and 1 μg/ml MBDZ. The trophozoites were obtained from the intestines of rats (Sprague-Dawley vivarium strain) previously infected with Giardia intestinalis.
# The trophozoites were isolated in a BI-S33 culture media containing 10% bovine serum without added antibiotic. From this media, 4.5 ml were extracted, which were separated in 8 glass tubes with screw caps. […] 4 of the tubes were exposed to the drugs for 4 hours and the other 4 tubes were exposed to the drugs for 24 hours. After the established periods of time were over (4 to 24 hours) the tubes underwent centrifugation (5 minutes at 500 rpm), where the supernatant was extracted and removed. The decanted material was then dyed with a 0.1% eosin solution to assess the viability of trophozoites: • a. The adhesion and growth uniformity of trophozoites was assessed, using an optical microscope in 5-10 fields (×100 and ×200). For this, a table was drafted describing the following:
# • b. The trophozoites viability rate was assessed, by using a Neubauer camera to the optical microscope. The percentage of non-viable trophozoites was estimated as compared with the total state of trophozoites (live and immobile). • c. The mobility and morphology of the trophozoites was assessed. Mobility is divided into:
# The normal morphology of trophozoites under the optical microscope is characterized by the following: unicellular organism, with pyriform morphology, bilateral symmetry, flagellated, bi-nucleated (vacuolar complex) on its dorsal face. Any change in morphology was correspondingly detailed.
# [3] = 24 hours of exposure, optical microscope
Compound,parasites migration [1] [%],"inhibition at 100 µg/mL ([1]; Trichuris, read-out: larval migration inhibition (LMI)) [%]",Motility scale (L4 helminth larvae),Mobility Ranking ([2]; 4 hours of drug exposure),Ranking of trophozoites adhesion ([2]; 4 hours of drug exposure),Mobility Ranking ([2]; 24 hours of drug exposure),Ranking of trophozoites adhesion ([2]; 24 hours of drug exposure),"microscopic morphological changes of trophozoites [2, 3]",larval migration inhibition (LMI) [1] [%],"adhered trophozoites (in words) [2, 3]","mobility of trophozoites (in words) [2, 3]"
"COC(=O)Nc1nc2ccc(C(=O)c3ccccc3)cc2[nH]1 [MBDZ, Mebendazole]",30,70,1,2,4 (25-50),1,5 (50-100),"some trophozoites were globular, some folded, some of distorted forms (partial loss of bilateral symmetry)",,,
"CC(=O)Oc1ccccc1C(=O)Nc1ncc([N+](=O)[O-])s1 [NTZX, Nitazoxanide]",40,,2,2,5 (50-100),1,7 (250-500),"globular trophozoites (very enlarged), a moderate amount of folded trophozoites and partial loss of dorsal vacuolar complex",60,The amount of adhered trophozoites was moderate,A low number of motile trophozoites (mostly in situ) and erratic movements
